In ChEMBL document CHEMBL1150351, “Design, synthesis, and biological evaluation of new-generation taxoids” (J Med Chem, 2008):

What was measured:
[1] = Cytotoxicity against multidrug resistant Pgp expressing human NCI/ADR cells after 72 hrs by sulforhodamine B test; assay type: functional, cell-based; conditions: NCI/ADR-RES
MCF7 = experiment: Cytotoxicity against Pgp deficient human MCF7 cells after 72 hrs by sulforhodamine B test; assay type: functional, cell-based; conditions: MCF7, 72 h
[2] = Cytotoxicity against Pgp deficient human LCC6 cells after 72 hrs by sulforhodamine B test; assay type: functional, cell-based; conditions: C6, 72 h
[3] = Cytotoxicity against multidrug resistant Pgp expressing human LCC6 cells after 72 hrs by sulforhodamine B test; assay type: functional, cell-based; conditions: LCC-6, 72 h
C6 = experiment: Resistance index, Ratio of IC50 for multidrug resistant Pgp expressing human LCC6 cells to IC50 for Pgp deficient human LCC6 cells; assay type: functional; parameters: reference not given here

| SMILES | IC50 [1] | IC50 (MCF7) | IC50 [2] | IC50 [3] | Ratio IC50 (C6) |
| --- | --- | --- | --- | --- | --- |
| COc1cccc(C(=O)O[C@H]2[C@@H]3[C@]4(OC(C)=O)CO[C@@H]4C[C@H](O)[C@@]3(C)C(=O)[C@H](OC(C)=O)C3=C(C)[C@@H](OC(=O)[C@H](O)[C@H](C=C(C)C)NC(=O)OC(C)(C)C)C[C@]2(O)C3(C)C)c1 | 2.3 nM | 0.8 nM | 0.6 nM |  |  |
| CC(=O)O[C@@]12CO[C@@H]1C[C@H](O)[C@@]1(C)C(=O)[C@H](OC(=O)c3cccc4ccccc34)C3=C(C)[C@@H](OC(=O)[C@H](O)[C@H](C=C(C)C)NC(=O)OC(C)(C)C)C[C@@](O)([C@@H](OC(=O)c4ccccc4)[C@H]21)C3(C)C |  |  | 5.3 nM | 15.2 nM | 2.9 |
| CC(=O)O[C@@]12CO[C@@H]1C[C@H](O)[C@@]1(C)C(=O)[C@H](OC(=O)c3ccccc3)C3=C(C)[C@@H](OC(=O)[C@H](O)[C@H](C=C(C)C)NC(=O)OC(C)(C)C)C[C@@](O)([C@@H](OC(=O)c4ccccc4)[C@H]21)C3(C)C |  |  | 1.8 nM | 4.8 nM | 2.7 |
| CC(=O)O[C@@]12CO[C@@H]1C[C@H](O)[C@@]1(C)C(=O)[C@H](O)C3=C(C)[C@@H](OC(=O)[C@H](O)[C@@H](NC(=O)OC(C)(C)C)c4ccccc4)C[C@@](O)([C@@H](OC(=O)c4ccccc4)[C@H]21)C3(C)C.O.O.O [DOCETAXEL] |  |  | 1 nM | 120 nM |  |
| CC(=O)O[C@@]12CO[C@@H]1C[C@H](O)[C@@]1(C)C(=O)[C@H](OC(=O)OCc3ccccc3)C3=C(C)[C@@H](OC(=O)[C@H](O)[C@H](C=C(C)C)NC(=O)OC(C)(C)C)C[C@@](O)([C@@H](OC(=O)c4ccccc4)[C@H]21)C3(C)C |  |  | 1.8 nM | 16.7 nM | 9.3 |
| COc1ccc(C(=O)O[C@H]2C(=O)[C@@]3(C)[C@H]([C@H](OC(=O)c4ccccc4)[C@]4(O)C[C@H](OC(=O)[C@H](O)[C@H](C=C(C)C)NC(=O)OC(C)(C)C)C(C)=C2C4(C)C)[C@]2(OC(C)=O)CO[C@@H]2C[C@@H]3O)cc1 |  |  | 3.8 nM | 4.7 nM | 1.2 |
| CC(=O)O[C@@]12CO[C@@H]1C[C@H](O)[C@@]1(C)C(=O)[C@H](OC(=O)CCc3ccccc3)C3=C(C)[C@@H](OC(=O)[C@H](O)[C@H](C=C(C)C)NC(=O)OC(C)(C)C)C[C@@](O)([C@@H](OC(=O)c4ccccc4)[C@H]21)C3(C)C |  |  | 5.1 nM | 31.2 nM | 6.1 |
| CC(=O)O[C@H]1C(=O)[C@@]2(C)[C@H]([C@H](OC(=O)c3cccc(C)c3)[C@]3(O)C[C@H](OC(=O)[C@H](O)[C@H](C=C(C)C)NC(=O)OC(C)(C)C)C(C)=C1C3(C)C)[C@]1(OC(C)=O)CO[C@@H]1C[C@@H]2O | 5 nM | 0.8 nM | 1.5 nM |  |  |
| COc1ccccc1C(=O)O[C@H]1C(=O)[C@@]2(C)[C@H]([C@H](OC(=O)c3ccccc3)[C@]3(O)C[C@H](OC(=O)[C@H](O)[C@H](C=C(C)C)NC(=O)OC(C)(C)C)C(C)=C1C3(C)C)[C@]1(OC(C)=O)CO[C@@H]1C[C@@H]2O |  |  | 2.1 nM | 5.8 nM | 2.7 |
| CC(=O)O[C@@]12CO[C@@H]1C[C@H](O)[C@@]1(C)C(=O)[C@H](OC(=O)c3ccc4ccccc4c3)C3=C(C)[C@@H](OC(=O)[C@H](O)[C@H](C=C(C)C)NC(=O)OC(C)(C)C)C[C@@](O)([C@@H](OC(=O)c4ccccc4)[C@H]21)C3(C)C |  |  | 6.3 nM | 15.2 nM | 2.4 |
| COc1cccc(C(=O)O[C@H]2C(=O)[C@@]3(C)[C@H]([C@H](OC(=O)c4ccccc4)[C@]4(O)C[C@H](OC(=O)[C@H](O)[C@H](C=C(C)C)NC(=O)OC(C)(C)C)C(C)=C2C4(C)C)[C@]2(OC(C)=O)CO[C@@H]2C[C@@H]3O)c1 |  |  | 2.8 nM | 5.1 nM | 1.8 |
| COc1ccccc1CCC(=O)O[C@H]1C(=O)[C@@]2(C)[C@H]([C@H](OC(=O)c3ccccc3)[C@]3(O)C[C@H](OC(=O)[C@H](O)[C@H](C=C(C)C)NC(=O)OC(C)(C)C)C(C)=C1C3(C)C)[C@]1(OC(C)=O)CO[C@@H]1C[C@@H]2O |  |  | 1.5 nM | 5 nM | 3.3 |
| COc1cccc(CC(=O)O[C@H]2C(=O)[C@@]3(C)[C@H]([C@H](OC(=O)c4ccccc4)[C@]4(O)C[C@H](OC(=O)[C@H](O)[C@H](C=C(C)C)NC(=O)OC(C)(C)C)C(C)=C2C4(C)C)[C@]2(OC(C)=O)CO[C@@H]2C[C@@H]3O)c1 |  |  | 2.1 nM | 20.3 nM | 9.7 |
| CCC(=O)O[C@H]1C(=O)[C@@]2(C)[C@H]([C@H](OC(=O)c3cccc(F)c3)[C@]3(O)C[C@H](OC(=O)[C@H](O)[C@H](CC(C)C)NC(=O)OC(C)(C)C)C(C)=C1C3(C)C)[C@]1(OC(C)=O)CO[C@@H]1C[C@@H]2O |  |  | 0.4 nM |  |  |
| COc1ccc(CCC(=O)O[C@H]2C(=O)[C@@]3(C)[C@H]([C@H](OC(=O)c4ccccc4)[C@]4(O)C[C@H](OC(=O)[C@H](O)[C@H](C=C(C)C)NC(=O)OC(C)(C)C)C(C)=C2C4(C)C)[C@]2(OC(C)=O)CO[C@@H]2C[C@@H]3O)cc1 |  |  | 1.7 nM | 4.9 nM | 2.9 |
| COc1ccccc1CC(=O)O[C@H]1C(=O)[C@@]2(C)[C@H]([C@H](OC(=O)c3ccccc3)[C@]3(O)C[C@H](OC(=O)[C@H](O)[C@H](C=C(C)C)NC(=O)OC(C)(C)C)C(C)=C1C3(C)C)[C@]1(OC(C)=O)CO[C@@H]1C[C@@H]2O |  |  | 2.3 nM | 13.8 nM | 6 |
| C=Cc1cccc(C(=O)O[C@H]2[C@@H]3[C@]4(OC(C)=O)CO[C@@H]4C[C@H](O)[C@@]3(C)C(=O)[C@H](OC(=O)CC)C3=C(C)[C@@H](OC(=O)[C@H](O)[C@H](C=C(C)C)NC(=O)OC(C)(C)C)C[C@]2(O)C3(C)C)c1 |  |  | 2.9 nM |  |  |
| CCC(=O)O[C@H]1C(=O)[C@@]2(C)[C@H]([C@H](OC(=O)c3cccc(F)c3)[C@]3(O)C[C@H](OC(=O)[C@H](O)[C@H](C=C(C)C)NC(=O)OC(C)(C)C)C(C)=C1C3(C)C)[C@]1(OC(C)=O)CO[C@@H]1C[C@@H]2O |  |  | 0.5 nM |  |  |
| CCC(=O)O[C@H]1C(=O)[C@@]2(C)[C@H]([C@H](OC(=O)c3cccc(Cl)c3)[C@]3(O)C[C@H](OC(=O)[C@H](O)[C@H](C=C(C)C)NC(=O)OC(C)(C)C)C(C)=C1C3(C)C)[C@]1(OC(C)=O)CO[C@@H]1C[C@@H]2O |  |  | 0.8 nM |  |  |
| COc1cccc(CCC(=O)O[C@H]2C(=O)[C@@]3(C)[C@H]([C@H](OC(=O)c4ccccc4)[C@]4(O)C[C@H](OC(=O)[C@H](O)[C@H](C=C(C)C)NC(=O)OC(C)(C)C)C(C)=C2C4(C)C)[C@]2(OC(C)=O)CO[C@@H]2C[C@@H]3O)c1 |  |  | 3.7 nM | 6.7 nM | 1.8 |
| COc1cccc(C(=O)O[C@H]2[C@@H]3[C@]4(OC(C)=O)CO[C@@H]4C[C@H](O)[C@@]3(C)C(=O)[C@H](OC(=O)C3CC3)C3=C(C)[C@@H](OC(=O)[C@H](O)[C@H](C=C(C)C)NC(=O)OC(C)(C)C)C[C@]2(O)C3(C)C)c1 |  |  | 1 nM | 2.9 nM | 2.9 |
| C/C=C/[C@H](NC(=O)OC(C)(C)C)[C@@H](O)C(=O)O[C@H]1C[C@@]2(O)[C@@H](OC(=O)c3cccc(OC)c3)[C@@H]3[C@]4(OC(C)=O)CO[C@@H]4C[C@H](O)[C@@]3(C)C(=O)[C@H](OC(=O)CC)C(=C1C)C2(C)C |  |  | 1.2 nM |  |  |
